Experiment [1] has as its target Ba/F3 L858R/T790M/C797S EGFR triple mutant cell line (Homo sapiens, UniProt P00533, T790M/C797S/L858R, cells depend on it). The experiment is described as follows: Cell proliferation inhibition experiment (CellTiter-Glo), Ba/F3 L858R/T790M/C797S. In kind it is cell-based. The conditions noted are these: 72 hours, Cell Titer-Glo, read-out: Ba/F3 (L858R/T790M/C797S) IC50. (Cellular ATP, detected with luciferase, serves as a proxy for viable cell number.)

Experiment [2] concerns the target T1, L858R/T790M/C797S triple mutant EGFR (Homo sapiens, UniProt P00533, C797S/L858R/T790M).
T1 construct: purchased Signalchem
In words: Enzymology experiment in vitro (HTRF/FRET kinase activity), L858R/T790M/C797S triple mutant EGFR. In kind it is biochemical. The note with it: HTRF KinEASE-TK, read-out: EGFR (L858R/T790M/C797S) IC50. The essentials: (§1)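 HTRF KinEASE-TK format: EGFR enzyme preincubated with compound 10 min at room temperature, then peptide substrate plus ATP added for 40 min. Detection with EDTA, XL665-streptavidin and Eu³⁺-labeled antibody for 1 h.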
On the technique in general: In TR-FRET formats the signal depends on donor and acceptor labels being close together.

Experiment [3] deals with EGFR wild-type cell line A431. In words: Cell proliferation inhibition experiment (CellTiter-Glo), A431. Type of experiment: cell-based. The conditions noted are these: Homo sapiens, A-431, 72 h, A431 cells, Cell Titer-Glo, read-out: A431 EGFR WT IC50. The essentials: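 A431 cells, 800 per well, were cultured 24 h and then exposed to serially diluted compound (0.1% DMSO final) for 72 h at 37° C., 5% CO2.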

For experiment [4], the target named is Ba/F3 De119/T790M/C797S EGFR triple mutant cell line (Homo sapiens, UniProt P00533, T790M/C797S, cells depend on it, form not given). The experiment is described as follows: Cell proliferation inhibition experiment (CellTiter-Glo), Ba/F3 De119/T790M/C797S. In kind it is cell-based. The conditions noted are these: Ba/F3 Del19/T790M/C797S EGFR triple mutant cells, 72 hours, Cell Titer-Glo; read-out: Ba/F3 (Del19/T790M/C797S) IC50.
Chain of Ba/F3 De119/T790M/C797S EGFR triple mutant cell line (P00533 with tags, fused parts or gaps DEL746-750/T790M/C797S, form open): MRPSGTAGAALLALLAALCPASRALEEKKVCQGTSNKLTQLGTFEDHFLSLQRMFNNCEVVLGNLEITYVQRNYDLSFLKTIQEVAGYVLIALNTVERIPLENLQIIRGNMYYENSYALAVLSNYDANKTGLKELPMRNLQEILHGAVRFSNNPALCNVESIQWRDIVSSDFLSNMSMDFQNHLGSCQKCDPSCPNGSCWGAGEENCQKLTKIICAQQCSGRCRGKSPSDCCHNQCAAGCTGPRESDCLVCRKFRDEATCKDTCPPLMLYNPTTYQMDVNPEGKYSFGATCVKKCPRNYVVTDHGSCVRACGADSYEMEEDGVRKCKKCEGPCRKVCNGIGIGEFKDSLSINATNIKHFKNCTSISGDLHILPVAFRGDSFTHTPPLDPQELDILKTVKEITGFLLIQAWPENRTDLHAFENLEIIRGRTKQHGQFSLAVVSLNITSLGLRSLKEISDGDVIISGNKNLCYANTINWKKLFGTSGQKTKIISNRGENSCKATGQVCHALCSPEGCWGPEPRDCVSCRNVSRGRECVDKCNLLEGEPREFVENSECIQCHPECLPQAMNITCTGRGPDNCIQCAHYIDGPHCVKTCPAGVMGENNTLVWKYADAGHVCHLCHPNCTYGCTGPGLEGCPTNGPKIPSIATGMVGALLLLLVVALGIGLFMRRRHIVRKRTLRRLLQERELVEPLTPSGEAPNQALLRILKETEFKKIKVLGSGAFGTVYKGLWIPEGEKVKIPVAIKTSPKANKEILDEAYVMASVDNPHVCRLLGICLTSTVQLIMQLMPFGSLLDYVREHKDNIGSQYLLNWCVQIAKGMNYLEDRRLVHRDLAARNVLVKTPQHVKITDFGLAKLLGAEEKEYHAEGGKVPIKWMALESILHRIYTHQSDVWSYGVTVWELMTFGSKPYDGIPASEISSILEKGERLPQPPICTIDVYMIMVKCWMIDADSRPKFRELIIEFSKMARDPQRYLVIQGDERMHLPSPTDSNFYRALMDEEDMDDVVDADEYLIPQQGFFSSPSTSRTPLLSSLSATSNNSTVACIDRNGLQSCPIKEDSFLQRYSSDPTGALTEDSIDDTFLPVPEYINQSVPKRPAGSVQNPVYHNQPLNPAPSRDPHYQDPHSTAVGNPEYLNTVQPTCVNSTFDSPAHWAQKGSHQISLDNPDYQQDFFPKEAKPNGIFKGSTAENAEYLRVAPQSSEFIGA

Another experiment addresses T2, wild-type EGFR (Homo sapiens, UniProt P00533).
T2 construct: purchased Signalchem
In words: Enzymology experiment in vitro (HTRF/FRET kinase activity), wild-type EGFR. Type of experiment: biochemical. The note with it: HTRF KinEASE-TK, read-out: EGFR (WT) IC50. The essentials: as §1

Structures are written as SMILES.

T2 sequence (P00533 25-1210): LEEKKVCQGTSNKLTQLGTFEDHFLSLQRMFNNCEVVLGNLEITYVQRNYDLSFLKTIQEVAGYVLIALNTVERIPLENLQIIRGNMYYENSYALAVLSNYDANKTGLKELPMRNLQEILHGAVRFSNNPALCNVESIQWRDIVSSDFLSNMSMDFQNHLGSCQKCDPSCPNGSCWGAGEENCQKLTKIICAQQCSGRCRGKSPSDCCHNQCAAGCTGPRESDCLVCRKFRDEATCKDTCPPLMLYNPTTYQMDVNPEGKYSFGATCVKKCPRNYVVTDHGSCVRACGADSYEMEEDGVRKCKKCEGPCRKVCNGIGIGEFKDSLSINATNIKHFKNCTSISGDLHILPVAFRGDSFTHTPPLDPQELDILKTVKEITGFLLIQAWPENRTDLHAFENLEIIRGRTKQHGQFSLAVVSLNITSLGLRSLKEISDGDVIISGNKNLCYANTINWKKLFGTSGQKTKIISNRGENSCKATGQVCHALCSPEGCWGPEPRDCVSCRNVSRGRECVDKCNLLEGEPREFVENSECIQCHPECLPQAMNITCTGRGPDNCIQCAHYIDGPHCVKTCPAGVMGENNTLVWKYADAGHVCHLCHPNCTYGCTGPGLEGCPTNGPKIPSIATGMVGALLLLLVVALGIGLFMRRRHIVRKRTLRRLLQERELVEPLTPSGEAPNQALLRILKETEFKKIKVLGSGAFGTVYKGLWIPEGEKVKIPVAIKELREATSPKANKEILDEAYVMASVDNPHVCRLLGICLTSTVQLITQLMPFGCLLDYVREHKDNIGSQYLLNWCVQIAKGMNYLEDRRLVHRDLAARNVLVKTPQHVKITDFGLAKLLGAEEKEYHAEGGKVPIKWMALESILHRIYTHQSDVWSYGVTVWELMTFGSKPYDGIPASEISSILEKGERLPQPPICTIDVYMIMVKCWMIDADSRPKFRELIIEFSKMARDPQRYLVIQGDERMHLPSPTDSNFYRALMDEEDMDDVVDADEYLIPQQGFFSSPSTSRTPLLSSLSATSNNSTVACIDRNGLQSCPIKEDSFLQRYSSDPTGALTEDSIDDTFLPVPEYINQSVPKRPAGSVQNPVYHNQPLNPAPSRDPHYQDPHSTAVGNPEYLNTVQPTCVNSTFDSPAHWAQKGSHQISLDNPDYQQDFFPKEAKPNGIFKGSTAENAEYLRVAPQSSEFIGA
T1 sequence (P00533 25-1210 T790M/C797S/L858R): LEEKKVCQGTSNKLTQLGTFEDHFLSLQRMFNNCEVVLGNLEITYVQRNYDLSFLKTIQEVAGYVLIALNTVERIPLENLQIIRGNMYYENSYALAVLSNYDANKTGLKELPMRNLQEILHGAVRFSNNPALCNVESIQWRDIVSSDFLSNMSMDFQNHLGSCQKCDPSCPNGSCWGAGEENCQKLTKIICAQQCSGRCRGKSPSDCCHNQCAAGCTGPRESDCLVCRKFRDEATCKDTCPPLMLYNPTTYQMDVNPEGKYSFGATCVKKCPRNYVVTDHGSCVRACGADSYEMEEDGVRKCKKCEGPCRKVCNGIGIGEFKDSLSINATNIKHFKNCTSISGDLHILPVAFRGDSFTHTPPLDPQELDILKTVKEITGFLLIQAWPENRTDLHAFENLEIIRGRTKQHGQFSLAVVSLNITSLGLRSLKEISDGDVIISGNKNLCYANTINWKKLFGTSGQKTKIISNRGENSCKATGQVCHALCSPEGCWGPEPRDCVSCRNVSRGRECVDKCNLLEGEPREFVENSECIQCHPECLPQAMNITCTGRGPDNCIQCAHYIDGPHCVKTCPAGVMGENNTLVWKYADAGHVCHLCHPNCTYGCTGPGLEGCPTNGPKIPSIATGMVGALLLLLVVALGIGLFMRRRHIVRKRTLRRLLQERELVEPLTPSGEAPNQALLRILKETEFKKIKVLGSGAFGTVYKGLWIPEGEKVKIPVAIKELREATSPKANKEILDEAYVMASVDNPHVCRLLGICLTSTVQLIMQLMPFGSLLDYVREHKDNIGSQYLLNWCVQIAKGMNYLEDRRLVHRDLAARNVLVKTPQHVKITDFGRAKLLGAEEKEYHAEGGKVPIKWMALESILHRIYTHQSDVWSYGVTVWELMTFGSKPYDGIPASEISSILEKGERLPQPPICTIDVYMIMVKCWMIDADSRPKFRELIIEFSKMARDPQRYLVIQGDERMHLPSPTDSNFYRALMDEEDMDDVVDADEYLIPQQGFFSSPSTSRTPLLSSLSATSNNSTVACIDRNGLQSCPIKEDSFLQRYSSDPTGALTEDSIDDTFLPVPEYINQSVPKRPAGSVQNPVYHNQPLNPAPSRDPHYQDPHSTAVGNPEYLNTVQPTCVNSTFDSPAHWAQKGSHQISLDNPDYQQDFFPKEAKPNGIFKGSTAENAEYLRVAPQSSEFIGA
Chain of Ba/F3 L858R/T790M/C797S EGFR triple mutant cell line (P00533 whole entry T790M/C797S/L858R): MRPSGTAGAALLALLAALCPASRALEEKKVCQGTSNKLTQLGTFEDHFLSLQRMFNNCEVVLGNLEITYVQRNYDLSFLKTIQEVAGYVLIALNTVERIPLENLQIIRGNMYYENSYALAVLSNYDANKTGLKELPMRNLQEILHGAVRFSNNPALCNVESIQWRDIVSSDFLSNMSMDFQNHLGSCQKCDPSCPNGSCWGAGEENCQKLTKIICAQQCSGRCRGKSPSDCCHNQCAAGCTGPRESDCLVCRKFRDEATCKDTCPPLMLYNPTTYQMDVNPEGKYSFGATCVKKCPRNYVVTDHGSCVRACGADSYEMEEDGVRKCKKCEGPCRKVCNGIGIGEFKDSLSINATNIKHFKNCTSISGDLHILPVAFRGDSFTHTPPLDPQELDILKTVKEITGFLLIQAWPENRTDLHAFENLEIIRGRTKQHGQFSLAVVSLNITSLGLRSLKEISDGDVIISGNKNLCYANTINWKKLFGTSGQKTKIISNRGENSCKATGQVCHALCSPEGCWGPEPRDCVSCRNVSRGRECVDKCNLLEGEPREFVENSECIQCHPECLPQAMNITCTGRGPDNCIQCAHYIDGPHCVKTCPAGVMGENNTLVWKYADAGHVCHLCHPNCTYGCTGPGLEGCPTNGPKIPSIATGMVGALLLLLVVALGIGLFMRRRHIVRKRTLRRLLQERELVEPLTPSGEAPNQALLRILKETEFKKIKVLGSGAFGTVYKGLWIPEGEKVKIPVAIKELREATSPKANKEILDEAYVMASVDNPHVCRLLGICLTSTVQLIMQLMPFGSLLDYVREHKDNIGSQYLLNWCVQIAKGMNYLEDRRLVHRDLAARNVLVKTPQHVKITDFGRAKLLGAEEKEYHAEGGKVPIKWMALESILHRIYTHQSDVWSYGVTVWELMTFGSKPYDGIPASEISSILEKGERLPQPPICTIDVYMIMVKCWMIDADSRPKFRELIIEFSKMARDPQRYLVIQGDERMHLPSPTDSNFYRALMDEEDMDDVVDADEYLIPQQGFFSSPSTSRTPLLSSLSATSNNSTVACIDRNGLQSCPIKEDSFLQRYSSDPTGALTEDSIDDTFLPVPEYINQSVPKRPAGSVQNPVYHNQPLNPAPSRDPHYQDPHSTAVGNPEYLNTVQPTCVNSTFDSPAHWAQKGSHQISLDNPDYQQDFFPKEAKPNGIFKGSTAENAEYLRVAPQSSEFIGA

For `COc1cc(N2CCC(N3CCN(C)C(C)C3)CC2)c(-c2cnn(C)c2)cc1Nc1ncc(Br)c(Nc2ccc3nccnc3c2P(C)(C)=O)n1` (stereo not shown) [compound 193], the GI50 in experiment [1] is 9.83 nM; in experiment [4] it was 4.48 nM. Moreover, the IC50 amounted to 0.27 nM in experiment [2], 59.9 nM in experiment [3] and 0.99 nM at wild-type EGFR.

`COc1cc(N2CCC3(CC2)CN(C)CCN3C)c(-c2cnn(C)c2)cc1Nc1ncc(Br)c(Nc2ccc3nccnc3c2P(C)(C)=O)n1` [compound 194]: the GI50 turned out to be 16.4 nM in experiment [1] and 5.56 nM in experiment [4]. Besides, the IC50 was determined as 0.17 nM in experiment [2], 79.5 nM in experiment [3] and 2.85 nM at wild-type EGFR.

For the compound `COc1cc(N2CCC3(CC2)CN(C)CCO3)c(-c2cnn(C)c2)cc1Nc1ncc(Br)c(Nc2cc3c(cc2N(C)S(C)(=O)=O)CC3)n1` [compound 195], the figures for the GI50 in experiment [1] and in experiment [4] were 12.5 nM and 7.7 nM, respectively. Moreover, the figures for the IC50 (in experiment [2]; in experiment [3]; at wild-type EGFR) were 2.33 nM, 415 nM and 8.52 nM, respectively.

As for `COc1cc(N2CCC3(CCN(C)CC3)CC2)c(-c2cnn(C)c2)cc1Nc1ncc(Br)c(Nc2cc3c(cc2N(C)S(C)(=O)=O)CC3)n1` [compound 196], the GI50 in experiment [1] worked out at 20.8 nM; in experiment [4], 12.3 nM. For the same compound, the IC50 in experiment [2] worked out at 0.59 nM; in experiment [3] it was 356 nM; on wild-type EGFR, 3.35 nM.

Regarding `COc1cc(N2CCC(N3CC(C)N(C)C(C)C3)CC2)c(-c2cnn(C)c2)cc1Nc1ncc(Br)c(Nc2ccc3nccnc3c2P(C)(C)=O)n1` (stereo not shown) [compound 197], the results for the GI50 in experiment [1] and in experiment [4] were 14.3 nM and 7.7 nM, respectively. Besides, the IC50 turned out to be 0.25 nM in experiment [2], 95.6 nM in experiment [3] and 0.62 nM at wild-type EGFR.

Turning to `COc1cc(N2CCC(OCCN(C)C)CC2)c(-c2cnn(C)c2)cc1Nc1ncc(Br)c(Nc2ccc3nccnc3c2P(C)(C)=O)n1` [compound 198], the values for the GI50 in experiment [1] and in experiment [4] were 9.49 nM and 4.26 nM, respectively. Also, the IC50 is 0.22 nM in experiment [2], 38 nM in experiment [3] and 0.62 nM on wild-type EGFR.

In the case of `CN1CCN(c2noc3c(Nc4ncc(Br)c(Nc5ccc6nccnc6c5P(C)(C)=O)n4)cc(-c4cnn(C)c4)cc23)CC1` [compound 200], the GI50 in experiment [1] amounted to 22 nM; in experiment [4], 7.47 nM. Further, the IC50 was found to be 0.19 nM in experiment [2], 69.6 nM in experiment [3] and 7.56 nM at wild-type EGFR.

On to `COc1cc(N2CCC3(CC2)CN(C(C)C)CCO3)c(-c2cnn(C)c2)cc1Nc1ncc(Br)c(Nc2ccc3nccnc3c2P(C)(C)=O)n1` [compound 202], for which the GI50 is 3.75 nM in experiment [1] and 2.93 nM in experiment [4]. Further, the values for the IC50 (in experiment [2]; in experiment [3]; at wild-type EGFR) were 0.59 nM, 91.3 nM and 3.74 nM, respectively.

Regarding `COc1cc(N2CCC3(CCOC3)C2)c(-c2cnn(C)c2)cc1Nc1ncc(Br)c(Nc2ccc3nccnc3c2P(C)(C)=O)n1` (stereo not shown) [compound 203], the GI50 in experiment [1] is 20 nM; in experiment [4], 10.6 nM. The IC50 in experiment [2] came to 0.47 nM; in experiment [3] it was 351 nM; at wild-type EGFR, 21.2 nM.

Regarding `COc1cc(N2CCC(N3CC(CF)C3)CC2)c(-c2cnn(C)c2)cc1Nc1ncc(Br)c(Nc2ccc3nccnc3c2P(C)(C)=O)n1` [compound 204], the results for the GI50 in experiment [1] and in experiment [4] were 11.2 nM and 5.19 nM, respectively. The IC50 was found to be 0.25 nM in experiment [2], 66.9 nM in experiment [3] and 1.57 nM on wild-type EGFR.

As for `COc1cc(N2CCC3CCN(CCF)C3C2)c(-c2cnn(C)c2)cc1Nc1ncc(Br)c(Nc2ccc3nccnc3c2P(C)(C)=O)n1` (stereo not shown) [compound 205, (6-((5-Bromo-2-((4-(1-(2-fluoroethyl)octahydro-6H-pyrrolo[2,3-c]pyridin-6-yl)-2-methoxy-5-(1-methyl-1H-pyrazol-4-yl)phenyl)amino)pyrimidin-4-yl)amino)quinoxalin-5-yl)dimethylphosphine oxide], the results for the GI50 in experiment [1] and in experiment [4] were 8.9 nM and 3.2 nM, respectively. Moreover, the IC50 in experiment [2] came out at 0.35 nM; in experiment [3] it was 116 nM; on wild-type EGFR, 3.08 nM.

For the compound `COc1cc(N2CCC3CCN(CCOC(C)C)C3C2)c(-c2cnn(C)c2)cc1Nc1ncc(Br)c(Nc2ccc3nccnc3c2P(C)(C)=O)n1` (stereo not shown) [compound 206], the values for the GI50 in experiment [1] and in experiment [4] were 30.2 nM and 7.62 nM, respectively. In addition, the IC50 in experiment [2] was 0.62 nM; in experiment [3], 298 nM; on wild-type EGFR, 8.46 nM.

As to `COc1cc(N2CCC3(CC2)COCCN3C)c(-c2cnn(C)c2)cc1Nc1ncc(Br)c(Nc2cc3c(cc2N(C)S(C)(=O)=O)CC3)n1` [compound 208], the GI50 turned out to be 14.6 nM in experiment [1] and 9.45 nM in experiment [4]. For the same compound, the IC50 in experiment [2] came to 0.57 nM; in experiment [3], 348 nM; at wild-type EGFR it was 5.79 nM.

`COc1cc(N2CCC(N3CCN(CCF)CC3)CC2)c(-c2cnn(C)c2)cc1Nc1ncc(Br)c(Nc2ccccc2N(C)S(=O)(=O)C2CC2)n1` [compound 209]: the GI50 in experiment [1] stood at 12.6 nM; in experiment [4], 7.18 nM. Also, the IC50 in experiment [2] was determined as 0.73 nM; in experiment [3], 171 nM; at wild-type EGFR, 9.74 nM.

For the compound `COc1cc(N2CCC(N3CCN(C)CC3)C(F)C2)c(-c2cnn(C)c2)cc1Nc1ncc(Br)c(Nc2ccccc2N(C)S(=O)(=O)C2CC2)n1` (stereo not shown) [compound 211], the GI50 in experiment [1] came out at 24.8 nM; in experiment [4], 14.3 nM. The results for the IC50 (in experiment [2]; in experiment [3]; at wild-type EGFR) were 0.61 nM, 354 nM and 10.9 nM, respectively.

As to `COc1cc(N2CCC(N3CCOCC3)CC2)c(-c2cnsc2)cc1Nc1ncc(Br)c(Nc2ccc3nccnc3c2P(C)(C)=O)n1` [compound 212], the GI50 in experiment [1] came to 25.1 nM; in experiment [4], 9.29 nM. Besides, the IC50 in experiment [2] is 0.33 nM; in experiment [3] it was 179 nM; on wild-type EGFR, 18.9 nM.

For the compound `COc1cc(N2CCC(N3CCOCC3)C(F)C2)c(-c2cnn(C)c2)cc1Nc1ncc(Br)c(Nc2ccc3nccnc3c2P(C)(C)=O)n1` (stereo not shown) [compound 214], the GI50 in experiment [1] worked out at 4.87 nM; in experiment [4] it was 1.47 nM. For the same compound, the IC50 in experiment [2] worked out at 0.36 nM; in experiment [3] it was 139 nM; at wild-type EGFR, 1.86 nM.

With `COc1cc(N2CCC3(CCOCC3)CC2)c(-c2cnn(C)c2)cc1Nc1ncc(Br)c(Nc2ccc3nccnc3c2P(C)(C)=O)n1` [compound 215], the figures for the GI50 in experiment [1] and in experiment [4] were 5.58 nM and 2.23 nM, respectively. The IC50 in experiment [2] is 0.25 nM; in experiment [3], 227 nM; at wild-type EGFR, 7.3 nM.

As for `COc1cc(N2CCC(N(C)C)C(F)C2)c(-c2cnn(C)c2)cc1Nc1ncc(Br)c(Nc2ccc3nccnc3c2P(C)(C)=O)n1` (stereo not shown) [compound 216], the GI50 was 7.32 nM in experiment [1] and 2.06 nM in experiment [4]. The IC50 in experiment [2] worked out at 0.29 nM; in experiment [3], 45.7 nM; on wild-type EGFR it was 1.71 nM.

With `COc1cc(N2CCN(CC3COC3)CC2)c(-c2cnn(C)c2)cc1Nc1ncc(Br)c(Nc2ccc3nccnc3c2P(C)(C)=O)n1` [compound 219, (6-((5-Bromo-2-((2-methoxy-5-(1-methyl-1H-pyrazol-4-yl)-4-(4-(oxetan-3-ylmethyl)piperazin-1-yl)phenyl)amino)pyrimidin-4-yl)amino)quinoxalin-5-yl)dimethylphosphine oxide], the GI50 in experiment [1] was found to be 1.08 nM; in experiment [4], 1.1 nM. Besides, the IC50 is 0.12 nM in experiment [2], 32.1 nM in experiment [3] and 1.66 nM on wild-type EGFR.

As to `COc1cc(N2CCN(CCC(F)F)CC2)c(-c2cnn(C)c2)cc1Nc1ncc(Br)c(Nc2ccc3nccnc3c2P(C)(C)=O)n1` [compound 222, (6-((5-Bromo-2-((4-(4-(3,3-difluoropropyl)piperazin-1-yl)-2-methoxy-5-(1-methyl-1H-pyrazol-4-yl)phenyl)amino)pyrimidin-4-yl)amino)quinoxalin-5-yl)dimethylphosphine oxide], the GI50 in experiment [1] stood at 2.02 nM; in experiment [4], 1.22 nM. Also, the IC50 in experiment [2] was found to be 0.3 nM; in experiment [3], 70.4 nM; on wild-type EGFR, 4.22 nM.

On to `COc1cc(N2CCC3(CC2)CN(C(C)C)CC(C)(C)O3)c(-c2cnn(C)c2)cc1Nc1ncc(Br)c(Nc2ccc3nccnc3c2P(C)(C)=O)n1` [compound 224, (6-((5-Bromo-2-((4-(4-isopropyl-2,2-dimethyl-1-oxa-4,9-diazaspiro [5.5]undecane-9-yl)-2-methoxy-5-(1-methyl-1H-pyrazol-4-yl)phenyl)amino)pyrimidin-4-yl)amino)quinoxalin-5-yl)dimethylphosphine oxide], for which the GI50 in experiment [1] was found to be 13.2 nM; in experiment [4] it was 8.88 nM. The figures for the IC50 (in experiment [2]; in experiment [3]; at wild-type EGFR) were 4.31 nM, 336 nM and 10.7 nM, respectively.

For the compound `COc1cc(N2CCC(OCC3CC3)CC2)c(-c2cnn(C)c2)cc1Nc1ncc(Br)c(Nc2ccc3ncccc3c2P(C)(C)=O)n1` [compound 225], the results for the GI50 in experiment [1] and in experiment [4] were 11.3 nM and 3.54 nM, respectively. For the same compound, the IC50 in experiment [2] stood at 1.96 nM; in experiment [3], 370 nM; at wild-type EGFR it was 10.8 nM.
